Read-outs that look alike come from different tables or passages of the source.
Columns and labels:
[1] = aged individuals, particularly women >70 years; cited from earlier work
mouse dorsal skin = assay type: in vivo; settings: for Effect on hypodermal thickness: GDX animals of both sexes, p<0.01; for Dermis % (proportion of skin layer) / Epidermis % (proportion of skin layer) / Hypodermis % (proportion of skin layer) / Dermis T (thickness) / Epidermis T (thickness) / Hypodermis T (thickness): 3 weeks treatment; for Dermis T (thickness) / Epidermis T (thickness) / Hypodermis T (thickness): mean ± SEM
Procedure: (§1) Fifty six adult male and female C57BL6 mice 13-15 weeks of age were obtained from Harlan Laboratory (Indiana, USA). […] Animals of intact and GDX control groups were treated with the vehicle alone during the same period. Six hours after the last treatment, all animals were sacrificed.
Since DHT is known to be poorly active by the oral route, it was injected subcutaneously. To determine the DHT dose, a preliminary dose-range study was performed (see supplementary online material, online Table S1).
After shaving the long hair, the dorsal skin was excised, flattened and immediately immersed in 10% buffered formalin. A sample was embedded in paraffin blocks from which 4 μm sections were cut and routinely stained.
Under the light microscope, measurements were performed using the IMAGE-PRO PLUS (Media Cybernetics, USA). Twenty-five readings were scored from each skin layer of each animal. The epidermal thickness was measured from stratum basale to stratum granulosum (excluding stratum corneum), whereas the dermal thickness was the distance between the epidermis and the hypodermis. Finally, the hypodermal thickness was measured as the distance between the dermis and the panniculus carnosus.

[2] = men and women 60-79 years, oral 50 mg once daily, cited from earlier work
androgen receptor (AR) = experiment: Immunohistochemistry of androgen receptor in epidermis of mouse dorsal skin; assay type: in vivo; settings: GDX males and females, 3 weeks treatment
Procedure: as §1

[3] = GDX females, versus GDX control

Row | Structure (SMILES) | Effect on hypodermal thickness (mouse dorsal skin) | Dermis % (proportion of skin layer) (mouse dorsal skin; GDX female mice) | Epidermis % (proportion of skin layer) (mouse dorsal skin; GDX female mice) | Hypodermis % (proportion of skin layer) (mouse dorsal skin; GDX female mice) | Dermis T (thickness) (mouse dorsal skin; GDX female mice) | Epidermis T (thickness) (mouse dorsal skin; GDX female mice) | Hypodermis T (thickness) (mouse dorsal skin; GDX female mice) | Effect on dermal thickness (in words) (mouse dorsal skin; GDX females) | Increase in dermal thickness (mouse dorsal skin; [3]) | Dermis % (proportion of skin layer) (mouse dorsal skin; GDX male mice) | Epidermis % (proportion of skin layer) (mouse dorsal skin; GDX male mice) | Hypodermis % (proportion of skin layer) (mouse dorsal skin; GDX male mice) | Dermis T (thickness) (mouse dorsal skin; GDX male mice) | Epidermis T (thickness) (mouse dorsal skin; GDX male mice) | Hypodermis T (thickness) (mouse dorsal skin; GDX male mice) | also measured
1 | C[C@]12CC[C@H](O)CC1=CC[C@@H]1[C@@H]2CC[C@]2(C)C(=O)CC[C@@H]12 [DHEA, dehydroepiandrosterone] | markedly decreased | 75.8% | 3.2% | 21% | 249 ± 11.8^+ μm | 10.5 ± 0.3^+ μm | 69 ± 4.5^++ μm | increase | 19% | 92.8% | 1.7% | 5.5% | 486 ± 28.7 μm | 8.9 ± 0.3 μm | 29 ± 6.2 μm | Sebum production [1]: increase; Increase in epidermal thickness (mouse dorsal skin; GDX females, versus GDX control, p<0.05): 13%; Facial skin pigmentation (yellowness) ([2]; 1 year): significantly decreased; Other components of skin colour (lightness and redness) ([2]; 1 year): remained stable; Skin surface hydratation ([2]; after 12 months): significantly increased
2 | C[C@]12CCC(=O)C[C@@H]1CC[C@@H]1[C@@H]2CC[C@]2(C)[C@@H](O)CC[C@@H]12 [DHT, 5α-androstane-17β-ol-3-one] | markedly decreased | 79.5% | 2.5% | 18% | 307 ± 13.3^++ μm | 9.6 ± 0.2 μm | 70 ± 4.6^++ μm | increase | 47% | 93% | 2.1% | 4.9% | 451 ± 24.1 μm | 10 ± 0.2 μm | 24 ± 1.9 μm | 
3 | C[C@]12CC[C@@H]3c4ccc(O)cc4CC[C@H]3[C@@H]1CC[C@@H]2O [E2] | markedly decreased |  |  |  |  |  |  |  |  |  |  |  |  |  |  | AR labeling / expression in epidermal nuclei (androgen receptor (AR)): weak AR labeling

Source: patent US20060178352A1, “Use of androgens to reduce the likelihood of acquiring or to treat skin aging” (Endorecherche, Inc., priority 2004, published 2006)
